Reference: patent US20260158103A1, “USE OF CYCLOSPORINE ANALOGUES AS ANTITHROMBOTIC AGENTS” (Hepion Pharmaceuticals, Inc., priority 2020, published 2026)
“Also recorded” adds a separate entry of the source. Where a SMILES comes first, the peptide text is derived from it. [ ]: non-standard residue; d: D form. NMeThr(4R-Me,4-(CH2)6NHAc) = CN[C@H](C(=O)O)[C@H](O)[C@H](C)CCCCCCNC(C)=O; NMeL = CN[C@@H](CC(C)C)C(=O)O; NMeV = CN[C@H](C(=O)O)C(C)C; dNMeA = CN[C@H](C)C(=O)O; Abu = CC[C@H](N)C(=O)O

Assays:
[1] = system: human platelet aggregation; experiment: Platelet aggregometry (washed platelets, lumi-aggregometer, % Light Transmittance); format: cell-based
Protocol: (§1) Platelet isolation. Blood (40 ml) was obtained from healthy volunteers who had not taken any drugs known to affect platelet function for 2 weeks prior to the study. Prostacyclin-washed platelet suspensions (2.5×10^8/ml) were prepared in Tyrode's buffer.
Platelet aggregometry. Washed platelets (500 μl/test) were pre-incubated (2 minutes at 37° C.) in a lumi-aggregometer (Chronolog, Havertown, PA, USA) with either vehicle (0.1% DMSO) or CRV431 (0.01-3 μM). Platelet aggregation was then initiated with collagen (1 μg/mL) or thrombin (0.1 U/mL) (Chronolog) and monitored by Aggro-Link software for a further 6 minutes. Extent of platelet aggregation was measured as % Light Transmittance between minutes 2 and 6 and determined by Aggro-Link Software.
(§2) Statistics. Statistical analysis was performed using GraphPad Prism 7.0 software. All means are reported with SEM. One-way ANOVA with Dunnet's multiple comparisons test was performed for aggregation studies, and a Repeated-measures One-way ANOVA with Dunnet's multiple comparisons test was performed for procoagulant platelet formation studies. Each N represents an experiment from an independent blood donor. A P-value less than 0.05 was considered significant.

[2] = system: human procoagulant platelet formation (platelet PS exposure); experiment: Procoagulant platelet formation (annexin-V-FITC binding to exposed phosphatidylserine, flow cytometry); format: cell-based
Protocol: as §1
Procoagulant platelet formation studies. […] Procoagulant platelet formation was assessed by measuring annexin-V-FITC binding to exposed phosphatidylserine (PS) by flow cytometry as described previously. Flow cytometry was performed utilizing a BD Fortessa X20 flow cytometer equipped with a blue (488 nm) laser and […] band pass filters to detect FITC. Percent PS-positive platelets were determined post-acquisition using FlowJo software.
as §2

| Compound | inhibition of platelet aggregation induced by collagen ([1]; collagen 1 μg/mL, CRV431 0.01-3 μM, washed human platelets, N=10, P>0.05) | inhibition of platelet aggregation at the highest concentration tested ([1]; single blood donor (FIG. 3A), highest concentration tested) | inhibition of platelet aggregation induced by thrombin ([1]; thrombin 0.1 U/mL, CRV431 0.01-3 μM, washed human platelets, N=9, P>0.05) | inhibition of platelet PS-exposure, a marker of procoagulant platelet formation ([2]; CRV431 at 1 and 3 μM, activated by collagen and thrombin, N=8, P<0.01 / P<0.001 vs. vehicle control) | percentage of phosphatidylserine (PS)-positive platelets ([2]; increasing concentrations of CRV431, induced by collagen (10 μg/ml) and thrombin (0.1 U/ml), flow cytometry) | inhibition of platelet aggregation (positive control) ([1]; single blood donor (FIG. 3B), agonist and concentration not given) |
| --- | --- | --- | --- | --- | --- | --- |
| CC[C@@H]1NC(=O)[C@H]([C@H](O)[C@H](C)CCCCCCNC(C)=O)N(C)C(=O)[C@H](C(C)C)N(C)C(=O)[C@H](CC(C)C)N(C)C(=O)[C@H](CC(C)C)N(C)C(=O)[C@@H](C)NC(=O)[C@H](C)NC(=O)[C@H](CC(C)C)N(C)C(=O)[C@H](C(C)C)NC(=O)[C@H](CC(C)C)N(C)C(=O)[C@@H](C)N(C)C1=O [CRV431] (cyclo(A[dA][NMeL][NMeL][NMeV][NMeThr(4R-Me,4-(CH2)6NHAc)][Abu][dNMeA][NMeL]V[NMeL])) | did not inhibit platelet aggregation | does not inhibit platelet aggregation | did not inhibit platelet aggregation | significantly inhibited platelet PS-exposure | reduce the percentage of phosphatidylserine (PS)-positive platelets | – |
| CC(=O)Oc1ccccc1C(=O)O [acetylsalicylic acid, reference compound] | – | – | – | – | – | effectively inhibited aggregation; also recorded: platelet aggregation is inhibited |
